The text below walks through data of patent publication US20080233191A1, “USE OF RANOLAZINE FOR ELEVATED BRAIN-TYPE NATRIURETIC PEPTIDE” (priority 2007, published 2008).

The assay relates to patients with non-ST elevation ACS. In words: MERLIN-TIMI 36 trial: randomized, double-blind, placebo-controlled; effect of ranolazine stratified by baseline BNP. Format: in vivo, human. The note with it: ranolazine vs placebo. The source says:
Ranolazine is believed to exert anti-ischemic effects through a reduction in myocardial cellular sodium and calcium overload with a consequent reduction in wall stress. B-type natriuretic peptide (BNP) is released in response to increased wall stress and is a potent indicator of risk in acute coronary syndromes (ACS). This study was a prospective evaluation of the interaction between BNP and the effect of ranolazine as part of a randomized, double-blind, placebo-controlled trial.
Plasma BNP were measured (ADVIA® BNP) at baseline (N=4543), 14 days (N=4079), and the Final Visit (N=3328) of the patients with non-ST elevation ACS randomized to ranolazine or placebo in the MERLIN-TIMI 36 trial. Patients were stratified using BNP>80 pg/mL based upon prior work with this assay. The primary endpoint of the trial was a composite of cardiovascular death, myocardial infarction, or recurrent ischemia (CVD/Ml/Rl).

For `COc1ccccc1OCC(O)CN1CCN(CC(=O)Nc2c(C)cccc2C)CC1` (racemic) [ranolazine, (±)-N-(2,6-dimethylphenyl)-4-[2-hydroxy-3-(2-methoxyphenoxy)propyl]-1-piperazine-acetamide], the “endpoint component of worsening angina, HR” value came out at 0.55 (BNP>80 pg/mL, CI 0.35-0.84, p=0.005) and 0.90 (BNP≦80 pg/mL, 95% CI 0.63-1.28, p=0.55). Besides, for the setting “patients with BNP>80 pg/mL, 95% CI 0.66-0.94, p=0.009”, the “primary endpoint (composite of cardiovascular death, myocardial infarction, or recurrent ischemia), HR” value amounted to 0.79. In addition, the “primary endpoint (composite of cardiovascular death, myocardial infarction, or recurrent ischemia), effect” value (patients with a negative BNP result, p-interaction=0.052) is reported as “lack of detectable effect”.
